From patent publication US20230063059A1, “SUBSTANCE INTERACTING WITH C TERMINAL FRAGMENT OF THE STIM1 FRACTION LOCALIZED TO THE PLASMA MEMBRANE OF THE CELLS, FOR ITS USE IN THE TREATMENT OF CANCERS, AND IN SCREENING AND DIAGNOSTIC METHODS” (UNIVERSITÉ DE BRETAGNE OCCIDENTALE - UBO, priority 2019, published 2023) come the findings set out here.

Each structure is given as a SMILES string.

Type in all cases: cell-based
Holding throughout (conditions): Gemcitabine alone, low dose 15 nM, 48 hours

The test system of series [1] is Panc-1-Wt pancreatic cancer cells. The series can be described thus: Cell proliferation, Cell Titer kit proliferation assay. Here is the method: (§1) For cell proliferation, cytotoxicity, and cell survival measurements, […] were seeded in 96 wells plates in 100 μL of DMEM medium. Cells were incubated for 48H hours at 37° C. with an anti-STIM1 antibody targeting the C terminal of STIM1 (CDN3H4, Santa Cruz; HPA011088 or HPA012123 clones, Sigma). Cell proliferation was evaluated using the Cell Titer kit proliferation assay (Promega). Cytotoxicity was evaluated using the Cell Tox green cytotoxicity assay (Promega) and cell survival measured using the CCK8 kit from Sigma. All these kits were used following manufacturer recommendations and using a plate reader
as §1, with “with 5 μg/ml of the” for “with an”, “Santa Cruz) alone, with 15 nM Gemcitabine alone” for “Santa Cruz; HPA011088”, “or with both 5 ug/ml of the anti-STIM1 clone CDN3H4 and 15 nM Gemcitabine. Relevant controls (isotype or/and DMSO treatments) were also realized.” for “or HPA012123 clones, Sigma).”

The test system is the same in series [2]. Put plainly: Cytotoxicity, Cell Tox green cytotoxicity assay. The method, then:
as §1
as §1, with “with 5 μg/ml of the” for “with an”, “Santa Cruz) alone, with 15 nM Gemcitabine alone” for “Santa Cruz; HPA011088”, “or with both 5 ug/ml of the anti-STIM1 clone CDN3H4 and 15 nM Gemcitabine. Relevant controls (isotype or/and DMSO treatments) were also realized.” for “or HPA012123 clones, Sigma).”

Series [3] has the same test system. Put plainly: Cell survival, CCK8 kit. Here is the method:
as §1
as §1, with “with 5 μg/ml of the” for “with an”, “Santa Cruz) alone, with 15 nM Gemcitabine alone” for “Santa Cruz; HPA011088”, “or with both 5 ug/ml of the anti-STIM1 clone CDN3H4 and 15 nM Gemcitabine. Relevant controls (isotype or/and DMSO treatments) were also realized.” for “or HPA012123 clones, Sigma).”
(In general: Formazan colour is commonly taken as a measure of viable cells.)

In the case of `Nc1ccn([C@@H]2O[C@H](CO)[C@@H](O)C2(F)F)c(=O)n1` [Gemcitabine], the “proliferation of pancreatic cancer cells” value in series [1] was “slightly but significantly reduce”. In addition, the cell cytotoxicity entry in series [2] is “without inducing cell cytotoxicity”. Besides, the “survival of pancreatic cancer cells” value in series [3] is recorded as “slightly but significantly reduce”.
